Test results from patent publication US20260116910A1, “POLYCYCLIC COMPOUNDS AND METHODS THEREOF” (HEPAITECH (BEIJING) BIOPHARMA TECHNOLOGY CO., LTD., priority 2021, published 2026).

Columns and labels:
[1] = target: MRGPRX4 (Homo sapiens, UniProt Q96LA9); assay: MRGPRX4 activation, Fluo-8 Ca2+ FLIPR assay in HEK293T cells stably expressing MRGPRX4; assay type: cell-based; settings: for EC50: MRGPRX4 activation, Ca2+ fluorescence, no activation in tested range reported as III, read-out: Activity (EC50 μM)
Sequence of MRGPRX4 (Q96LA9 whole entry): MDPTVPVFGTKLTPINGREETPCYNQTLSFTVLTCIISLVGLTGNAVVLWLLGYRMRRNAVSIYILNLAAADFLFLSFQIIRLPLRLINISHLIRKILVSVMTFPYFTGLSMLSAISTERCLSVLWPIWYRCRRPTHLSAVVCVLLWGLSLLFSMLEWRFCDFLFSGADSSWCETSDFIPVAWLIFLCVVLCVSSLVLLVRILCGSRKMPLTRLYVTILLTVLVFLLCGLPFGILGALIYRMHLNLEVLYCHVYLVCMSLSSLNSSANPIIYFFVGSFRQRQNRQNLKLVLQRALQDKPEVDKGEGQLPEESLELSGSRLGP
In short: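 Response measured as dF/F0: 30 s baseline, then 150 s after compound addition on FLIPR Tetra, in HHBS after 40-60 min room-temperature loading with 2 μM Fluo-8 AM.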

[2] = target: T1, human FXR (NR1H4) (Homo sapiens, UniProt Q96RI1); assay: Human FXR (NR1H4) agonist assessment, FXRE-NanoLuc reporter in HEK293T cells; assay type: cell-based; settings: FXR activation, HEK293T FXRE-NanoLuc reporter, 24 hr; for EC50: read-out: EC50
T1 sequence (Q96RI1 1-476 isoform Q96RI1-1): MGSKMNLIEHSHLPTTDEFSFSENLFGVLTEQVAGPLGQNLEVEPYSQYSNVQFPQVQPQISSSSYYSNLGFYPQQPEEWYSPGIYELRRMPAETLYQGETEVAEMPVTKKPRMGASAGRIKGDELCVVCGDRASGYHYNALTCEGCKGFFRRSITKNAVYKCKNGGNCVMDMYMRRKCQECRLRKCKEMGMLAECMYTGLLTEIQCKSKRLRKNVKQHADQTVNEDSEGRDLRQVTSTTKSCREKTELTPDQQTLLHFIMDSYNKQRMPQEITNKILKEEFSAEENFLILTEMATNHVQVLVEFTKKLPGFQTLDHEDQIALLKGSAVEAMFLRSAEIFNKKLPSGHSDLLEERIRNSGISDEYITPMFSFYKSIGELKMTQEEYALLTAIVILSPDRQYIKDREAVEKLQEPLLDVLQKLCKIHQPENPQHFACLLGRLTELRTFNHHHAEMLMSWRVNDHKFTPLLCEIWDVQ
In short: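 Read-out was NanoLuc luminescence in culture medium, measured 5 min after adding coelenterazine. Cells were HEK293T stably carrying human FXR and an FXRE reporter, exposed to compound for 24 hr at 37 °C. Vehicle was 0.01% DMSO. EC50 was obtained from sigmoid fits of gradient dilutions.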

Row | SMILES | MRGPRX4 activation, fluorescence change (dF/F0), Average ([1]; Conc. (Log[M]) −4) | MRGPRX4 activation, fluorescence change (dF/F0), Average ([1]; Conc. (Log[M]) −4.5) | MRGPRX4 activation, fluorescence change (dF/F0), Average ([1]; Conc. (Log[M]) −5) | MRGPRX4 activation, fluorescence change (dF/F0), Average ([1]; Conc. (Log[M]) −5.5) | MRGPRX4 activation, fluorescence change (dF/F0), Average ([1]; Conc. (Log[M]) −6) | MRGPRX4 activation, fluorescence change (dF/F0), Average ([1]; Conc. (Log[M]) −7) | EC50 [1] [µM] | Efficacy (maximum measured induction of NanoLuc, normalized to CDCA set as 100%) [2] | EC50 [2] [µM] | MRGPRX4 activation, fluorescence change (dF/F0), Average ([1]; Conc. (Log[M]) −8) | MRGPRX4 activation, fluorescence change (dF/F0), Average ([1]; Conc. (Log[M]) −9)
1 | CC[C@H]1[C@@H](O)[C@@H]2[C@H](CC[C@]3(C)[C@@H]([C@H](C)CCNC(=O)NS(=O)(=O)c4ccc(C(C)(C)CO)cc4)CC[C@@H]23)[C@@]2(C)CCCC[C@@H]12 [5-2] | 0.087 | 0.030 | 0.023 | 0.027 | 0.023 | 0.020 | > 100 | A (efficacy >400%) | < 1 | – | –
2 | CC[C@H]1[C@@H](O)[C@@H]2[C@H](CC[C@]3(C)[C@@H]([C@H](C)CCNC(=O)NS(=O)(=O)C4CCCCC4)CC[C@@H]23)[C@@]2(C)CCCC[C@@H]12 [5-3] | 0.297 | 0.031 | 0.001 | −0.012 | −0.033 | −0.011 | > 100 | C (100%<efficacy <=300%) | 1 to 10 | −0.012 | 0.002
3 | CC[C@H]1[C@@H](O)[C@@H]2[C@H](CC[C@]3(C)[C@@H]([C@H](C)CCNC(=O)NS(=O)(=O)c4ccc5c(c4)CCN5C(C)=O)CC[C@@H]23)[C@@]2(C)CCCC[C@@H]12 [5-4] | 0.097 | 0.017 | 0.020 | 0.020 | 0.013 | 0.017 | > 100 | B (300%<efficacy <=400%) | < 1 | – | –
4 | CC[C@H]1[C@@H](O)[C@@H]2[C@H](CC[C@]3(C)[C@@H]([C@H](C)CCNC(=O)NS(=O)(=O)C4CCC(C)(C)CC4)CC[C@@H]23)[C@@]2(C)CCCC[C@@H]12 [5-5] | 0.083 | 0.033 | 0.017 | 0.020 | 0.027 | 0.060 | > 100 | C (100%<efficacy <=300%) | < 1 | – | –
5 | CC[C@H]1[C@@H](O)[C@@H]2[C@H](CC[C@]3(C)[C@@H]([C@H](C)CCNC(=O)NS(=O)(=O)c4ccc5c(c4)OCO5)CC[C@@H]23)[C@@]2(C)CCCC[C@@H]12 [5-6] | 0.077 | 0.033 | 0.010 | 0.017 | 0.013 | 0.010 | > 100 | C (100%<efficacy <=300%) | < 1 | – | –
6 | CC[C@H]1[C@@H](O)[C@@H]2[C@H](CC[C@]3(C)[C@@H]([C@H](C)CCNC(=O)NS(=O)(=O)c4cccc(Cl)c4)CC[C@@H]23)[C@@]2(C)CCCC[C@@H]12 [5-7] | 0.070 | 0.027 | 0.030 | 0.020 | 0.020 | 0.017 | > 100 | B (300%<efficacy <=400%) | < 1 | – | –
7 | CC[C@H]1[C@@H](O)[C@@H]2[C@H](CC[C@]3(C)[C@@H]([C@H](C)CCNC(=O)NS(=O)(=O)c4ccc(C)cc4)CC[C@@H]23)[C@@]2(C)CCCC[C@@H]12 [5-8] | 0.073 | 0.037 | 0.023 | 0.017 | 0.020 | 0.023 | > 100 | C (100%<efficacy <=300%) | < 1 | – | –
